Laboratory results published in patent US10787413B2, “Derivatives of curcuminoids and use thereof as an anticancer agent” (CHINA MEDICAL UNIVERSITY, priority 2016, dated 2020).
Like-named read-outs stand apart in the source and are kept apart here.

Assays:
MDA-MB-231 cells [1] = test: Cell morphology, phase-contrast microscope; assay type: cell-based, human; settings: 10 μM, 24 h
From the text: For morphological observations, cells were visualized and photographed using a phase-contrast microscope equipped with a digital camera (Leica Microsystems, Wetzlar, Germany)^21.

MDA-MB-231 cells [2] = test: Western blot analysis of treated cells; assay type: cell-based, human
Protocol: After treatments, cells were harvested, washed, and suspended in PBS containing proteinase inhibitors and then disrupted with sonication. Protein concentrations were estimated using the Protein Assay kit from Bio-Rad (Hercules, Calif., USA). Samples were resolved with SDS-PAGE and transferred to a polyvinylidene difluoride membrane (EMD Millipore). Each membrane was blocked in 5% (w/v) non-fat milk in Tris-buffered saline with 0.1% (v/v) Tween-20 for 1 h followed by incubation with specific primary antibodies at 4° C. overnight. Each membrane was then incubated with horseradish peroxidase-conjugated secondary antibodies at room temperature for 1 h. Protein signals were detected with the Immobilon Western Chemiluminescent HRP Substrate (EMD Millipore) and visualized using the LAS-4000 imaging system (Fuji, Tokyo, Japan)^25.

CDK1 = CDK1 kinase assay on extracts of treated cells; assay type: cell-based, human; settings: 4-12 h of treatment
Protocol: CDK1 kinase activity was analyzed according to the protocol of Medical & Biological Laboratories CDK1 kinase assay kit (MBL International, Nagoya, Japan). In brief; the ability of cell extract prepared from each treatment was measured to phosphorylate its specific substrate, MV Peptide as described previously^23.

PC3 prostate cancer cell = test: MTT cell viability assay, PC3 prostate cancer cell; assay type: cell-based
Protocol: (§1) Cell viability was evaluated by measuring the reduction in MTT to yield blue formazan. Cells were cultured in 96-well plates, allowed to attach overnight, and then treated with compounds. After treatment, MTT solution (1 mg/ml) was added to each well, and plates were incubated for another 4 h. Medium were removed, blue formazan was dissolved in DMSO, and the absorbance was read at 570 nm^20.

MDA-MB-468 = test: Cell viability, MDA-MB-468 breast cancer cells; assay type: cell-based; settings: Homo sapiens; MDA-MB-468 (Triple negative), treated for 24 h
Protocol: as §1

MDA-MB-453 = test: Cell viability, MDA-MB-453 breast cancer cells; assay type: cell-based; settings: Homo sapiens; MDA-MB-453 (Her-2+), treated for 24 h
Protocol: as §1

SKBR-3 = test: Cell viability, SKBR-3 breast cancer cells; assay type: cell-based; settings: Homo sapiens, SK-BR-3; SKBR-3 (Her-2+), treated for 24 h
Protocol: as §1

MDA-MB-231 cells [3] = test: Apoptosis analysis (annexin V/propidium iodide); assay type: cell-based, human; settings: 5 μM, 24 and 48 h
From the text: After treatments, cells were harvested and stained with annexin V and propidium iodide using the Annexin V: FITC Apoptosis Detection Kit II (BD Biosciences) and subjected to flow cytometry (FACScalibur; Becton-Dickinson, Mountain View, Calif., USA). The percentages of apoptotic cells were quantified with CellQuest software (Becton-Dickinson)^24.

MCF-7 = test: Cell viability, MCF-7 breast cancer cells; assay type: cell-based; settings: Homo sapiens, MCF7; MCF-7 (ER+/PR+), treated for 24 h
Protocol: as §1

[4] = Solubility in water or alcohol; assay type: physicochemical; settings: compared with curcumin
[5] = Preliminary acute toxicity assay; settings: 21 days observation
Protocol: Normal mice were treated with 21a or 35a by oral route at 500 mg/kg/day for 5 consecutive days, following by 21 days of post-treatment observation. […] Detailed data for their toxicology and safety pharmacology studies will be carried out in the near future.
Female nu/nu mice (5 weeks old) were P.O. with vehicle (propylene glycol, 0.1 ml) or high dose of 21a (250 and 500 mg/kg) and 35a (500 mg/kg) for 5 days followed by observation of behavior and lethargy for 21 days.

HS-578T = test: Cell viability, HS-578T breast cancer cells; assay type: cell-based; settings: Homo sapiens; HS-578T (Triple negative), treated for 24 h
Protocol: as §1

## COc1cc(/C=C/C(=O)/C=C(O)/C=C/c2ccc(OC(=O)C(C)(CO)CO)c(OC)c2)ccc1OC(=O)C(C)(CO)CO [Compound 21a, ((1E,3Z,6E)-3-Hydroxy-5-oxohepta-1,3,6-triene-1,7-diyl)bis(2-methoxy-4,1-phenylene) bis(3-hydroxy-2-(hydroxymethyl)-2-methylpropenoate)]
MDA-MB-231 cells [1]
  cell morphology: caused breast cancer cell apoptosis and autophagy
MDA-MB-231 cells [2]; 5 μM, 0-24 h
  levels of Cyclin B and CDK 1: down-regulated
MDA-MB-231 cells [2]; 10 μM, 0-24 h
  levels of Bcl-2, Bcl-x: downregulated
  levels of CHOP, Bip: up-regulated
  levels of DR5, FADD, Bax: up-regulated
  levels of Ero1, PD1, PERK1, Calnexin, IRE1α: downregulated
MDA-MB-231 cells [2]; 10 μM, 4-24 h, time-dependent
  levels of Atg5, Atg7, Atg12, Beclin, p62 and LC3B: induced
CDK1
  CDK1 activity: significant decrease
PC3 prostate cancer cell; PC-3, treated 24 hours, read-out: IC50 24 hours
  IC50: 7.8 ± 0.03 µM
PC3 prostate cancer cell; PC-3, treated 48 hours, read-out: IC50 48 hours
  IC50: 6 ± 0.35 µM
PC3 prostate cancer cell; PC-3, treated 72 hours, read-out: IC50 72 hours
  IC50: 3.9 ± 0.08 µM
MDA-MB-468
  IC50: 6.13 ± 0.51 µM
MDA-MB-453
  IC50: 3.97 ± 0.27 µM
SKBR-3
  IC50: 6.39 ± 0.43 µM
MDA-MB-231 cells [3]
  population of annexin V-positive cells: significantly increased
MCF-7
  IC50: 6.13 ± 0.51 µM
[4]
  solubility in either water or alcohol: better than that of curcumin
[5]; P.O. 21a 250 and 500 mg/kg, 35a 500 mg/kg for 5 days
  behavior and death at end of experiment: no behavior alternation and death
[5]; oral 500 mg/kg/day for 5 consecutive days, vs untreated control
  body weight and behavior change: no significant difference
HS-578T
  IC50: 7.96 ± 0.27 µM
